The values below come from US12303509B2, “Compounds for the treatment of BRAF-associated diseases and disorders” (Pfizer Inc., priority 2020, dated 2025).

pIC50: −log10 of the molar value. Where a name gives a salt, the structure may show the parent alone.

Series [1] relates to A375 cells. Kind of series: Cellular phospho-ERK inhibition assay in A375 cells. The format is cell-based. The conditions noted are these: Homo sapiens, A-375, A375 cells (head prints A357), 2 hours treatment, read-out: A357 cell IC50. The method, boiled down: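 In Cell Western detection of phospho-ERK1/2 (Thr202/Tyr204) over GAPDH after 2 h compound exposure (66 pM to 10 μM, 9 points, 0.25% DMSO) of A375 cells in DMEM or H1755 cells in RPMI, both with 10% FBS. Percent of control set by DMSO and 10 μM binimetinib; 4-parameter IC50.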

A short description of series [2]: MDR1 LLC-PK1 and BCRP MDCKII permeability assay: permeability coefficient (Papp). The series is classed as in vitro ADME. The text has this: (§1) Final organic concentration in the assay was 1%.
The target of series [3] is full-length FLAG-tagged B-Raf(V600E) (Homo sapiens (Human), UniProt P15056, V600E). Kind of series: BRAF V600E enzyme assay (TR-FRET competitive displacement). The series is classed as binding. The settings on record: averaged IC50; TR-FRET tracer displacement, 60 min. An outline of the steps:
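TR-FRET tracer competition: compound (top dose 10 μM, 3-fold, 11 points) incubated 60 min at ambient temperature with FLAG-tagged full-length B-Raf(V600E) (5 nM), Eu anti-FLAG cryptate (0.5 nM) and tracer (50 nM), pH 7.4 HEPES/MgCl2 buffer. 665/615 ratio converted to percent of control; IC50 where fitted curve crosses 50 POC.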

Series [4] addresses BCRP (Homo sapiens (Human), UniProt Q9UNQ0). Kind of series: BCRP MDCKII permeability assay: efflux ratio. The format is in vitro ADME. The settings on record: dog.
The subject of series [5] is H1755 cells. Kind of series: Cellular phospho-ERK inhibition assay in H1755 cells. The settings on record: Homo sapiens, NCI-H1755, 2 hours treatment, read-out: H1755 Cell IC50. The series is classed as cell-based. Here is the method:
A375 and H1755 cells were obtained from the American Type Culture Collection (ATCC, Rockville, MD). A375 cells were maintained in DMEM growth medium containing 10% FBS. H1755 cells were maintained in RPMI growth medium containing 10% FBS.
Cells were harvested according to standard protocols, counted and plated onto flat-bottom, 96-well tissue culture plates (Costar #3599) at 2.5×10^4 cells/well for A375 cells and 1.5×10^4 cells/well for H1755 cells in 100 μL/well of growth medium containing 10% FBS. After an overnight incubation at 37° C. with 5% CO2 cells were treated for 2 hours at 37° C., 5% CO2 with compounds prepared as a 9-point, 1:3.33 fold dilution series with final compound concentrations ranging from 66 pM-10 μM and a constant DMSO concentration of 0.25%. Control wells contained either 0.25% DMSO alone (uninhibited control) or 10 μM binimetinib (complete inhibition control). The levels of phosphorylated ERK are determined using an In Cell Western protocol: following compound incubation, growth medium was discarded, and cells were fixed with 0.4% formaldehyde in PBS for 20 minutes at room temperature. Cells were permeabilized with 100% methanol for 10 minutes at room temperature. Plates were washed with PBS containing 0.05% Tween-20 and blocked for 1 hour at room temperature with LI-COR Blocking Buffer (LI-COR Biosciences; Cat #927-40000). Plates were then incubated for 2 hours at room temperature with 50 μL of a 1:400 dilution of anti-phospho-ERK1/2 (Thr202/Tyr204) (Cell Signaling; Cat #9101) and a 1:1000 dilution of anti-GAPDH (Millipore; Cat #MAB374) in LI-COR blocking buffer containing 0.05% Tween-20. Plates were washed with PBS containing […] Tween-20 then incubated at room temperature for 1 hour with 50 μL of a 1:1000 dilution of anti-rabbit AlexaFluor 680 (Life Technologies; Cat #A21109) and a 1:1000 dilution of anti-mouse IRDye 800CW (LI-COR; Cat #926-32210) in LI-COR blocking buffer containing 0.05% Tween-20. Plates were analyzed by reading on an Odyssey CLx infrared scanner. For each well, the phospho-ERK signal was normalized to the GAPDH signal and converted to POC using the following equation:
[formula] • Where: • Xmax Average Uninhibited Controls • Xmin Average Complete Inhibition Controls IC50 values were then calculated using a 4-parameter fit in XLfit software and are provided in Table A1.

Series [6] has as its target P-gp (MDR1) (Homo sapiens (Human), UniProt P08183). Kind of series: MDR1 LLC-PK1 permeability assay: efflux ratio. The format is in vitro ADME. The settings on record: pig.
From the text: as §1

full-length FLAG-tagged B-Raf(V600E), sequence (P15056 whole entry V600E): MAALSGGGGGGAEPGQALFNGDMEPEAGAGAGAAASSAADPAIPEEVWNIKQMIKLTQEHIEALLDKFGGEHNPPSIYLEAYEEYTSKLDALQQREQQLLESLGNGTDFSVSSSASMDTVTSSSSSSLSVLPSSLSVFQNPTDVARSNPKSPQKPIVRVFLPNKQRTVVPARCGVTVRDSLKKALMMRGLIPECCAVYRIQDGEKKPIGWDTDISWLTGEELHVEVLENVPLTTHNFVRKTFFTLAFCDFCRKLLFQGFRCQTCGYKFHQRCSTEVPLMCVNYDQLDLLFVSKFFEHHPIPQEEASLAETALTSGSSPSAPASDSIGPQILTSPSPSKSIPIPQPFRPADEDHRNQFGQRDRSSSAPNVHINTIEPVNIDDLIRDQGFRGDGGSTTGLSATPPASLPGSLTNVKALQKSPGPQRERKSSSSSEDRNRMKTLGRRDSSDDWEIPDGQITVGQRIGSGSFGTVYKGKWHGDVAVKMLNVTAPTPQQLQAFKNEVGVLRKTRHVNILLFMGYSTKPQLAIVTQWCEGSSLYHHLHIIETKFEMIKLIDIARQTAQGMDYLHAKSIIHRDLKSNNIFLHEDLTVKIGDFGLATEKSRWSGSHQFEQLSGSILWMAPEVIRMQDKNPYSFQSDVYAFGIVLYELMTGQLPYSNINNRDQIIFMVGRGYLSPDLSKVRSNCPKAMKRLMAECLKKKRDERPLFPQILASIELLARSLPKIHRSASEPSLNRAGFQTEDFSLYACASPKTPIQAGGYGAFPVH
BCRP, sequence (Q9UNQ0 whole entry): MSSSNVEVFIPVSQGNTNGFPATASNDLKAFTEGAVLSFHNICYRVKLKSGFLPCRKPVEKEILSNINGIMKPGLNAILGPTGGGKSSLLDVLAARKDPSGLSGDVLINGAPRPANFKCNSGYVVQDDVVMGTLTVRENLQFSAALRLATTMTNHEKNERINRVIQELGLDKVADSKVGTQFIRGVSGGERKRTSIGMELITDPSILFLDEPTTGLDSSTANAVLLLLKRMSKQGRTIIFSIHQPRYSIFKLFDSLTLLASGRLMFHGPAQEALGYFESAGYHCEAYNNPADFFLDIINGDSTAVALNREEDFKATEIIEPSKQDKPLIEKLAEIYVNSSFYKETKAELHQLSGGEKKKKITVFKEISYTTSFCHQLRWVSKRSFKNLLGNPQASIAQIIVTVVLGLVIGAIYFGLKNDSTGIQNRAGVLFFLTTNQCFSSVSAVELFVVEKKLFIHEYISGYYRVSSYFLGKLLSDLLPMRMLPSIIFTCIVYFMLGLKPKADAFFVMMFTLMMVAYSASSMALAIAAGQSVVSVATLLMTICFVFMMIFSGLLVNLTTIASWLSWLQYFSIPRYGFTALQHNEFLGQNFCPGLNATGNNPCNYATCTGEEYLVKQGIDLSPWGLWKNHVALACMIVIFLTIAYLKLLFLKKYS
P-gp (MDR1), sequence (P08183 whole entry, species assumed): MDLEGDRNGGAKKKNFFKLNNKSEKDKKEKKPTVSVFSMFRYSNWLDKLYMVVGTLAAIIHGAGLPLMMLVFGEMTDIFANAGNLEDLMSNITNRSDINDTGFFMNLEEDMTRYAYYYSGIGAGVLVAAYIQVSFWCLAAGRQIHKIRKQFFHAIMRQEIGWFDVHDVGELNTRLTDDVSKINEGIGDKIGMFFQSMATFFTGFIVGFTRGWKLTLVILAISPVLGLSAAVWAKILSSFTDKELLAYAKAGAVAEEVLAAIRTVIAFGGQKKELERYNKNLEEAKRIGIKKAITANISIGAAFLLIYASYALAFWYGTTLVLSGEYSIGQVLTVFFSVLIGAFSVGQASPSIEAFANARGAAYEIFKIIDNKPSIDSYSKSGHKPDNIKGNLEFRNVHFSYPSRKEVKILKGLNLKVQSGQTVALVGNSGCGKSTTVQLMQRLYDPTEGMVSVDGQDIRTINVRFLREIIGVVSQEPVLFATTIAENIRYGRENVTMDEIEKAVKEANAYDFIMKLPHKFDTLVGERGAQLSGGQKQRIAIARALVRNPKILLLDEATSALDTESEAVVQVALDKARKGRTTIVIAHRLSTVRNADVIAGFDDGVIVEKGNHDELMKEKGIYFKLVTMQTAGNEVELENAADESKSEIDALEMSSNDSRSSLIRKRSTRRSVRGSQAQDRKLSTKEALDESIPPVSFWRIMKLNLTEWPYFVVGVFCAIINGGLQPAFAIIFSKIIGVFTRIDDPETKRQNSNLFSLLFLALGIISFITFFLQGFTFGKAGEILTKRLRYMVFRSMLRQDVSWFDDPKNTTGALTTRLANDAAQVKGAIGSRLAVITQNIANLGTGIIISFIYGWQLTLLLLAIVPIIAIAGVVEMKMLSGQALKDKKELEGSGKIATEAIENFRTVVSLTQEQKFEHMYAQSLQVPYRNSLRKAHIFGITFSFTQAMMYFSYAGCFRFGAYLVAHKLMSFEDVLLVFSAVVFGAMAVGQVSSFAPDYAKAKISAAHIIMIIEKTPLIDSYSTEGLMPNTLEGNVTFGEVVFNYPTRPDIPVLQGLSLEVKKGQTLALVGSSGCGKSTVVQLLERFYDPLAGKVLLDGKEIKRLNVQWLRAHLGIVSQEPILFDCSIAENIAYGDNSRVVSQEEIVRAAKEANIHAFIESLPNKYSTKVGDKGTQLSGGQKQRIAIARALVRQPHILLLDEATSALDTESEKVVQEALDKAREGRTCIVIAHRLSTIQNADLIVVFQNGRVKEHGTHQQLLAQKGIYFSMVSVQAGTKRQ

As for `CO[C@@H]1CN(S(=O)(=O)Nc2ccc(F)c(Nc3ccc4ncn(C)c(=O)c4c3F)c2Cl)C[C@@H]1F` (relative stereo) [Example 15, cis-N-(2-chloro-4-fluoro-3-((5-fluoro-3-methyl-4-oxo-3,4-dihydroquinazolin-6-yl)amino)phenyl)-3-fluoro-4-methoxypyrrolidine-1-sulfonamide], the pIC50 in series [1] was 8.70; in series [3], 8.22; in series [5], 7.80. For the same compound, the Papp at 2 h, 1 µM in series [2] came to 26 ×10⁻⁶ cm/s. Besides, the efflux ratio at 2 h, 1 µM is 13.4 in series [4] and 6.8 in series [6].
Regarding `CO[C@H]1CN(S(=O)(=O)Nc2ccc(F)c(Nc3ccc4ncn(C)c(=O)c4c3Br)c2Cl)C[C@H]1F` (relative stereo) [Example 16, cis-N-(3-((5-bromo-3-methyl-4-oxo-3,4-dihydroquinazolin-6-yl)amino)-2-chloro-4-fluorophenyl)-3-fluoro-4-methoxypyrrolidine-1-sulfonamide trifluoroacetate], the figures for the pIC50 in series [1], in series [3] and in series [5] were 8.15, 8.22 and 7.37, respectively. Besides, the Papp at 2 h, 1 µM in series [2] came out at 29 ×10⁻⁶ cm/s. Further, the efflux ratio at 2 h, 1 µM in series [4] was determined as 4.5; in series [6] it was 5.9.
Take `CO[C@@H]1CN(S(=O)(=O)Nc2ccc(F)c(Nc3ccc4ncn(C)c(=O)c4c3Cl)c2Cl)C[C@@H]1F` (relative stereo) [Example 18, cis-N-(2-chloro-3-((5-chloro-3-methyl-4-oxo-3,4-dihydroquinazolin-6-yl)amino)-4-fluorophenyl)-3-fluoro-4-methoxypyrrolidine-1-sulfonamide]: the negative logarithm of the IC50 (pIC50) was 8.70 in series [1], 8.40 in series [3] and 7.74 in series [5]. The compound also came in with an apparent permeability coefficient (Papp) at 2 h, 1 µM in series [2] of 40 ×10⁻⁶ cm/s. Besides, the efflux ratio at 2 h, 1 µM is 4.9 in series [4] and 3 in series [6].
Turning to `CO[C@@H]1CCN(S(=O)(=O)Nc2ccc(F)c(Nc3ccc4ncn(C)c(=O)c4c3C)c2Cl)C1` [Example 1, (R)-N-(2-chloro-3-((3,5-dimethyl-4-oxo-3,4-dihydroquinazolin-6-yl)amino)-4-fluorophenyl)-3-methoxypyrrolidine-1-sulfonamide], the pIC50 in series [1] was 7.49; in series [3], 7.22; in series [5], 6.99. In series [2], this compound gave a Papp at 2 h, 1 µM of 31 ×10⁻⁶ cm/s. Moreover, the efflux ratio at 2 h, 1 µM is 1.4 in series [4] and 1.7 in series [6].
For the compound `CCN(C)S(=O)(=O)Nc1ccc(F)c(Nc2ccc3ncn(C)c(=O)c3c2Cl)c1Cl` [Example 2], the pIC50 was 7.82 in series [1], 7.44 in series [3] and 7.24 in series [5]. This compound yielded a Papp at 2 h, 1 µM in series [2] of 31 ×10⁻⁶ cm/s. The efflux ratio at 2 h, 1 µM in series [4] worked out at 1; in series [6], 1.2.
Regarding `CN(C)S(=O)(=O)Nc1ccc(F)c(Nc2ccc3ncn(C)c(=O)c3c2Cl)c1Cl` [Example 3, N-(2-chloro-3-((5-chloro-3-methyl-4-oxo-3,4-dihydroquinazolin-6-yl)amino)-4-fluorophenyl)-(N,N-dimethyl)-sulfamide], the results for the pIC50 in series [1], in series [3] and in series [5] were 7.80, 7.52 and 7.21, respectively. Further, the Papp at 2 h, 1 µM in series [2] was 33 ×10⁻⁶ cm/s. Further, the efflux ratio at 2 h, 1 µM in series [4] was 1.5; in series [6], 1.3.
`CCN(C)S(=O)(=O)Nc1ccc(F)c(Nc2ccc3ncn(C)c(=O)c3c2F)c1Cl` [Example 4, N-(2-chloro-4-fluoro-3-((5-fluoro-3-methyl-4-oxo-3,4-dihydroquinazolin-6-yl)amino)phenyl)-(N-ethyl-N-methyl)-sulfamide]: the negative logarithm of the IC50 (pIC50) was 7.72 in series [1], 7.49 in series [3] and 7.10 in series [5]. In series [2], the Papp at 2 h, 1 µM is 27 ×10⁻⁶ cm/s. Also, the values for the efflux ratio at 2 h, 1 µM in series [4] and in series [6] were 2.1 and 1.6, respectively.
As for `CO[C@@H]1CCN(S(=O)(=O)Nc2ccc(F)c(Nc3ccc4ncn(C)c(=O)c4c3F)c2Cl)C1` [Example 5, (R)-N-(2-chloro-4-fluoro-3-((5-fluoro-3-methyl-4-oxo-3,4-dihydroquinazolin-6-yl)amino)phenyl)-3-methoxypyrrolidine-1-sulfonamide], the pIC50 is 8.40 in series [1], 7.85 in series [3] and 7.70 in series [5]. Further, the Papp at 2 h, 1 µM in series [2] came to 27 ×10⁻⁶ cm/s. In addition, the efflux ratio at 2 h, 1 µM in series [4] came out at 3.4; in series [6] it was 3.8.
For `CO[C@@H]1CCN(S(=O)(=O)Nc2ccc(F)c(Nc3ccc4ncn(C)c(=O)c4c3Br)c2Cl)C1` [Example 8, (R)-N-(3-((5-bromo-3-methyl-4-oxo-3,4-dihydroquinazolin-6-yl)amino)-2-chloro-4-fluorophenyl)-3-methoxypyrrolidine-1-sulfonamide trifluoroacetate], the pIC50 was 7.92 in series [1], 8.00 in series [3] and 7.59 in series [5]. The compound also showed a Papp at 2 h, 1 µM in series [2] of 23 ×10⁻⁶ cm/s. For the same compound, the efflux ratio at 2 h, 1 µM in series [4] was found to be 1.3; in series [6] it was 2.5.
In the case of `CO[C@@H]1CCN(S(=O)(=O)Nc2ccc(F)c(Oc3ccc4ncn(C)c(=O)c4c3C)c2Cl)C1` [Example 10, (R)-N-(2-chloro-3-((3,5-dimethyl-4-oxo-3,4-dihydroquinazolin-6-yl)oxy)-4-fluorophenyl)-3-methoxypyrrolidine-1-sulfonamide], the negative-log IC50 (pIC50) is 7.92 in series [1], 8.10 in series [3] and 7.08 in series [5]. Besides, the Papp at 2 h, 1 µM in series [2] was 27 ×10⁻⁶ cm/s. The efflux ratio at 2 h, 1 µM in series [4] turned out to be 0.7; in series [6], 1.6.
With `Cn1cnc2ccc(Nc3cc(Cl)cc(NS(=O)(=O)N4CC[C@@H](F)C4)c3F)c(Cl)c2c1=O` [Example 56, (R)-N-(5-chloro-3-((5-chloro-3-methyl-4-oxo-3,4-dihydroquinazolin-6-yl)amino)-2-fluorophenyl)-3-fluoropyrrolidine-1-sulfonamide trifluoroacetate], the pIC50 in series [1] was 8.40; in series [3], 9.00; in series [5], 7.64. The efflux ratio at 2 h, 1 µM in series [4] worked out at 2.8; in series [6], 2.3.
On to `Cn1cnc2ccc(Nc3c(F)ccc(NS(=O)(=O)N4CC(F)C4)c3Cl)c(F)c2c1=O` [Example 127, N-(2-chloro-4-fluoro-3-((5-fluoro-3-methyl-4-oxo-3,4-dihydroquinazolin-6-yl)amino)phenyl)-3-fluoroazetidine-1-sulfonamide trifluoroacetate], for which the pIC50 was 8.70 in series [1] and 7.80 in series [5]. The Papp at 2 h, 1 µM in series [2] worked out at 34 ×10⁻⁶ cm/s. Also, the results for the efflux ratio at 2 h, 1 µM in series [4] and in series [6] were 5.1 and 3.8, respectively.
As for `Cc1c(Nc2c(F)ccc(NS(=O)(=O)N3CC(C)(F)C3)c2Cl)ccc2ncn(C)c(=O)c12` [Example 155, N-(2-chloro-3-((3,5-dimethyl-4-oxo-3,4-dihydroquinazolin-6-yl)amino)-4-fluorophenyl)-3-fluoro-3-methylazetidine-1-sulfonamide trifluoroacetate], the pIC50 in series [1] was 7.00; in series [5], 5.75. Besides, in series [2], the Papp at 2 h, 1 µM is 34 ×10⁻⁶ cm/s. Also, the efflux ratio at 2 h, 1 µM in series [4] came to 1.2; in series [6], 1.4.

By pIC50 is commonly meant the negative decadic logarithm of the IC50, by convention in mol/L. By Papp is commonly meant a coefficient for how fast a substance crosses the barrier. Read a high Papp as fast passage. A word on the efflux ratio: it is a quotient of directional permeabilities that is used to spot active efflux.
